In BindingDB's records for doi:10.1016/s0960-894x(00)00360-7 (Smithkline Beecham Pharmaceuticals, 2000):

Molecular target: Arginine--tRNA ligase (Staphylococcus aureus)
Assay: Inhibitory activity against cognate Staphylococcus aureus Arginyl-tRNA synthetase

IC50: 4.5 nM
Structure (SMILES): N=C(N)NCCC[C@H](N)C(=O)NS(=O)(=O)OC[C@H]1O[C@@H](n2cnc3c(N)ncnc32)[C@H](O)[C@@H]1O [Aminoalkyl adenylate and aminoacyl sulfamate analogue]
